# Measurements from paper PMC9532703, “A novel small molecule RK-019 inhibits FGFR2-amplification gastric cancer cell proliferation and induces apoptosis in vitro and in vivo” (Frontiers in Pharmacology, 2022).
# Experiments:
# Test in all cases: Kinase selectivity panel
# Assay type in all cases: biochemical
# Conditions in all cases: read-out: Inhibition(%) @ 1 µM RK-019
# MEK1(h) = biological target: T1, MEK1(h) (Homo sapiens, UniProt Q02750)
# T1 construct: purchased Eurofins Discovery Services (KinaseProfiler)
# Method: (§1) Median-inhibitory concentration (IC50) and inhibition ratio of kinases by RK-019 was assessed by Eurofins Discovery Services (Dundee, United Kingdom) using the ATP-site competition binding assay in vitro. Firstly, gradient concentration of RK-019 against FGFRs, including FGFR1, FGFR2, FGFR3, and FGFR4, were tested. IC50 value was calculate by the GraphPad Prism software (v8.4.3, GraphPad Software, California, United States). Then, to measure the selectivity prolife of RK-019, a panel of 422 recombinant human kinases was screened at a concentration of 1 µM RK-019. Kinase MAP was drawn by webtools from Cell Signaling Technology, Inc. (www.cellsignal.com).
# DCAMKL3(h) = biological target: T2, DCAMKL3(h) (Homo sapiens, UniProt Q9C098)
# T2 construct: purchased Eurofins Discovery Services (KinaseProfiler)
# Method: as §1
# CaMKIIα(h) = biological target: T3, CaMKIIα(h) (Homo sapiens, UniProt Q9UQM7)
# T3 construct: purchased Eurofins Discovery Services (KinaseProfiler)
# Method: as §1
# PIP5K1a(h) = biological target: T4, PIP5K1a(h) (Homo sapiens, UniProt Q99755)
# T4 construct: purchased Eurofins Discovery Services (KinaseProfiler)
# Method: as §1
# FGFR1(V561M)(h) = biological target: T5, FGFR1(V561M)(h) (Homo sapiens, UniProt P11362, V561M)
# T5 construct: purchased Eurofins Discovery Services (KinaseProfiler)
# Method: as §1
# TSSK2(h) = biological target: T6, TSSK2(h) (Homo sapiens, UniProt Q96PF2)
# T6 construct: purchased Eurofins Discovery Services (KinaseProfiler)
# Method: as §1
# PKBβ(h) = biological target: T7, PKBβ(h) (Homo sapiens, UniProt P31751)
# T7 construct: purchased Eurofins Discovery Services (KinaseProfiler)
# Method: as §1
# SRPK2(h) = biological target: T8, SRPK2(h) (Homo sapiens, UniProt P78362)
# T8 construct: purchased Eurofins Discovery Services (KinaseProfiler)
# Method: as §1
# EphB2(h) = biological target: T9, EphB2(h) (Homo sapiens, UniProt P29323)
# T9 construct: purchased Eurofins Discovery Services (KinaseProfiler)
# Method: as §1
# [1] = biological target: T10, PI3 Kinase (p110a/p85a)(m) (Mus musculus, UniProt P42337)
# T10 construct: purchased Eurofins Discovery Services (KinaseProfiler)
# Method: as §1
# LOK(h) = biological target: T11, LOK(h) (Homo sapiens, UniProt O94804)
# T11 construct: purchased Eurofins Discovery Services (KinaseProfiler)
# Method: as §1
# cSRC(h) = biological target: T12, cSRC(h) (Homo sapiens, UniProt P12931)
# T12 construct: purchased Eurofins Discovery Services (KinaseProfiler)
# Method: as §1
# Flt3(D835Y)(h) = biological target: T13, Flt3(D835Y)(h) (Homo sapiens, UniProt P36888, D835Y)
# T13 construct: purchased Eurofins Discovery Services (KinaseProfiler)
# Method: as §1
# Aurora-B(h) = biological target: T14, Aurora-B(h) (Homo sapiens, UniProt Q96GD4)
# T14 construct: purchased Eurofins Discovery Services (KinaseProfiler)
# Method: as §1
# CK1γ2(h) = biological target: T15, CK1γ2(h) (Homo sapiens, UniProt P78368)
# T15 construct: purchased Eurofins Discovery Services (KinaseProfiler)
# Method: as §1
# Met(D1246H)(h) = biological target: T16, Met(D1246H)(h) (Homo sapiens, UniProt P08581, D1228H)
# T16 construct: purchased Eurofins Discovery Services (KinaseProfiler)
# Method: as §1
# PRK1(h) = biological target: T17, PRK1(h) (Homo sapiens, UniProt Q16512)
# T17 construct: purchased Eurofins Discovery Services (KinaseProfiler)
# Method: as §1
# MAK(h) = biological target: T18, MAK(h) (Homo sapiens, UniProt P20794)
# T18 construct: purchased Eurofins Discovery Services (KinaseProfiler)
# Method: as §1
# Rsk1(h) = biological target: T19, Rsk1(h) (Homo sapiens, UniProt Q15418)
# T19 construct: purchased Eurofins Discovery Services (KinaseProfiler)
# Method: as §1
# CDK17/cyclinY(h) = biological target: T20, CDK17/cyclinY(h) (Homo sapiens, UniProt Q00537)
# T20 construct: purchased Eurofins Discovery Services (KinaseProfiler)
# Method: as §1
# PKD2(h) = biological target: T21, PKD2(h) (Homo sapiens, UniProt Q9BZL6)
# T21 construct: purchased Eurofins Discovery Services (KinaseProfiler)
# Method: as §1
# Fms(Y969C)(h) = biological target: T22, Fms(Y969C)(h) (Homo sapiens, UniProt P07333, Y969C)
# T22 construct: purchased Eurofins Discovery Services (KinaseProfiler)
# Method: as §1
# NEK3(h) = biological target: T23, NEK3(h) (Homo sapiens, UniProt P51956)
# T23 construct: purchased Eurofins Discovery Services (KinaseProfiler)
# Method: as §1
# GCK(h) = biological target: T24, GCK(h) (Homo sapiens, UniProt Q12851)
# T24 construct: purchased Eurofins Discovery Services (KinaseProfiler)
# Method: as §1
# PKBα(h) = biological target: T25, PKBα(h) (Homo sapiens, UniProt P31749)
# T25 construct: purchased Eurofins Discovery Services (KinaseProfiler)
# Method: as §1
# NEK9(h) = biological target: T26, NEK9(h) (Homo sapiens, UniProt Q8TD19)
# T26 construct: purchased Eurofins Discovery Services (KinaseProfiler)
# Method: as §1
# Abl (M351T)(h) = biological target: T27, Abl (M351T)(h) (Homo sapiens, UniProt P00519, M351T)
# T27 construct: purchased Eurofins Discovery Services (KinaseProfiler)
# Method: as §1
# STK16(h) = biological target: T28, STK16(h) (Homo sapiens, UniProt O75716)
# T28 construct: purchased Eurofins Discovery Services (KinaseProfiler)
# Method: as §1
# PAK5(h) = biological target: T29, PAK5(h) (Homo sapiens, UniProt Q9P286)
# T29 construct: purchased Eurofins Discovery Services (KinaseProfiler)
# Method: as §1
# PKR(h) = biological target: T30, PKR(h) (Homo sapiens, UniProt P19525)
# T30 construct: purchased Eurofins Discovery Services (KinaseProfiler)
# Method: as §1
# DRAK2(h) = biological target: T31, DRAK2(h) (Homo sapiens, UniProt O94768)
# T31 construct: purchased Eurofins Discovery Services (KinaseProfiler)
# Method: as §1
# CDK12/cyclinK(h) = biological target: T32, CDK12/cyclinK(h) (Homo sapiens, UniProt Q9NYV4)
# T32 construct: purchased Eurofins Discovery Services (KinaseProfiler)
# Method: as §1
# MEK2(h) = biological target: T33, MEK2(h) (Homo sapiens, UniProt P36507)
# T33 construct: purchased Eurofins Discovery Services (KinaseProfiler)
# Method: as §1
# TBK1(h) = biological target: T34, TBK1(h) (Homo sapiens, UniProt Q9UHD2)
# T34 construct: purchased Eurofins Discovery Services (KinaseProfiler)
# Method: as §1
# SLK(h) = biological target: T35, SLK(h) (Homo sapiens, UniProt Q9H2G2)
# T35 construct: purchased Eurofins Discovery Services (KinaseProfiler)
# Method: as §1
# BIKe(h) = biological target: T36, BIKe(h) (Homo sapiens, UniProt Q9NSY1)
# T36 construct: purchased Eurofins Discovery Services (KinaseProfiler)
# Method: as §1
# MAPKAP-K3(h) = biological target: T37, MAPKAP-K3(h) (Homo sapiens, UniProt Q16644)
# T37 construct: purchased Eurofins Discovery Services (KinaseProfiler)
# Method: as §1
# T1 sequence (Q02750 whole entry): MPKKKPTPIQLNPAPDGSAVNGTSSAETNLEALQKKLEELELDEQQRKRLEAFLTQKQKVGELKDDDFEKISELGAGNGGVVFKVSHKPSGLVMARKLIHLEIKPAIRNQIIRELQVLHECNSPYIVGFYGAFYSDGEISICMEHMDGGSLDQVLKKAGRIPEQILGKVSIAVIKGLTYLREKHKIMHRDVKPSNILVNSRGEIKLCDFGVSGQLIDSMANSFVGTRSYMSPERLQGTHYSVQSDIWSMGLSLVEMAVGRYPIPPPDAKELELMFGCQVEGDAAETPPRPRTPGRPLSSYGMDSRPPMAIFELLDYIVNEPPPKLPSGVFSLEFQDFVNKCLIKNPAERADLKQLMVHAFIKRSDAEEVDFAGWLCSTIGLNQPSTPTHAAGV
# T5 sequence (P11362 22-822 V561M): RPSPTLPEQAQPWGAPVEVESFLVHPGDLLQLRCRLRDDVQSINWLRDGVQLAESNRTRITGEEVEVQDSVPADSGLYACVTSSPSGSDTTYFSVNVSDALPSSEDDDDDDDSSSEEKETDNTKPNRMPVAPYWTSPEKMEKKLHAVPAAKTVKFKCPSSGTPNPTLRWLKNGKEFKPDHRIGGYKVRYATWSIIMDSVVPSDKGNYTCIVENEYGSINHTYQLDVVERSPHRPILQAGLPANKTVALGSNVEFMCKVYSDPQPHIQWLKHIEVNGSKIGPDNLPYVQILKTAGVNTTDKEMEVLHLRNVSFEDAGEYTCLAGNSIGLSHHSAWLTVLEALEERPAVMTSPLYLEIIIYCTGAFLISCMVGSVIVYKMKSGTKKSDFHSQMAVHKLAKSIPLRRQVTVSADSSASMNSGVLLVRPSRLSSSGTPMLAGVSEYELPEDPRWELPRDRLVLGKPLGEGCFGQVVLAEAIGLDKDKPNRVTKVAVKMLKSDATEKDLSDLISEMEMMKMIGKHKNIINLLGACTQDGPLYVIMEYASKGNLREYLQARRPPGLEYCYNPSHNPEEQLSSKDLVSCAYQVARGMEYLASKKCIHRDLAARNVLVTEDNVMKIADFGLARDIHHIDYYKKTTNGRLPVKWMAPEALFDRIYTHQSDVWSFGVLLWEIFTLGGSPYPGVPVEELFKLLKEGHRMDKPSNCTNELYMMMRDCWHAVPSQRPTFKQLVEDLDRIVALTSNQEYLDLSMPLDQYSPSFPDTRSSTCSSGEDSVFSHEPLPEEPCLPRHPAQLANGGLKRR
# T3 sequence (Q9UQM7 whole entry): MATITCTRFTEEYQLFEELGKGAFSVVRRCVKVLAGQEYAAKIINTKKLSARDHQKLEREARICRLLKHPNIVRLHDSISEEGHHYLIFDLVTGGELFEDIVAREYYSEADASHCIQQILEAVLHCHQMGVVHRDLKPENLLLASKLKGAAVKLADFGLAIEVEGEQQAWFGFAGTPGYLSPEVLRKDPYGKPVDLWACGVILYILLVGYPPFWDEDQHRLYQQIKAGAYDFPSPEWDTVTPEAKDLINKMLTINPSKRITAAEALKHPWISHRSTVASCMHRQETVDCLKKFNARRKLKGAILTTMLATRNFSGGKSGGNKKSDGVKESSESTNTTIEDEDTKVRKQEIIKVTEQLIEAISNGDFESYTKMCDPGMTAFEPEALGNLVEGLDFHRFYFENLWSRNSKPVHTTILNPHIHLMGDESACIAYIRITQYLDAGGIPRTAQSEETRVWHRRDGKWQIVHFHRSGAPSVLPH
# T37 sequence (Q16644 whole entry): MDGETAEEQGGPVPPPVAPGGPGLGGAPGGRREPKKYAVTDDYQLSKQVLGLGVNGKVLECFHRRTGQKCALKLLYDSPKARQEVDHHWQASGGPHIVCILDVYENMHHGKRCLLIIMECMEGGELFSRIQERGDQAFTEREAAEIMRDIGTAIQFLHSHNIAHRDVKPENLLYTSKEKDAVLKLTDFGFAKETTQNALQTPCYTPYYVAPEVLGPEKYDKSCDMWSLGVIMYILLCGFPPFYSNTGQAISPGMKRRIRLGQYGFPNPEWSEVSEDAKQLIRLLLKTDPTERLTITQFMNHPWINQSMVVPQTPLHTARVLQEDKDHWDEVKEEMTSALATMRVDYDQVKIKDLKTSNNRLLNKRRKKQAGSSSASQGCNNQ
# T22 sequence (P07333 20-972 Y969C): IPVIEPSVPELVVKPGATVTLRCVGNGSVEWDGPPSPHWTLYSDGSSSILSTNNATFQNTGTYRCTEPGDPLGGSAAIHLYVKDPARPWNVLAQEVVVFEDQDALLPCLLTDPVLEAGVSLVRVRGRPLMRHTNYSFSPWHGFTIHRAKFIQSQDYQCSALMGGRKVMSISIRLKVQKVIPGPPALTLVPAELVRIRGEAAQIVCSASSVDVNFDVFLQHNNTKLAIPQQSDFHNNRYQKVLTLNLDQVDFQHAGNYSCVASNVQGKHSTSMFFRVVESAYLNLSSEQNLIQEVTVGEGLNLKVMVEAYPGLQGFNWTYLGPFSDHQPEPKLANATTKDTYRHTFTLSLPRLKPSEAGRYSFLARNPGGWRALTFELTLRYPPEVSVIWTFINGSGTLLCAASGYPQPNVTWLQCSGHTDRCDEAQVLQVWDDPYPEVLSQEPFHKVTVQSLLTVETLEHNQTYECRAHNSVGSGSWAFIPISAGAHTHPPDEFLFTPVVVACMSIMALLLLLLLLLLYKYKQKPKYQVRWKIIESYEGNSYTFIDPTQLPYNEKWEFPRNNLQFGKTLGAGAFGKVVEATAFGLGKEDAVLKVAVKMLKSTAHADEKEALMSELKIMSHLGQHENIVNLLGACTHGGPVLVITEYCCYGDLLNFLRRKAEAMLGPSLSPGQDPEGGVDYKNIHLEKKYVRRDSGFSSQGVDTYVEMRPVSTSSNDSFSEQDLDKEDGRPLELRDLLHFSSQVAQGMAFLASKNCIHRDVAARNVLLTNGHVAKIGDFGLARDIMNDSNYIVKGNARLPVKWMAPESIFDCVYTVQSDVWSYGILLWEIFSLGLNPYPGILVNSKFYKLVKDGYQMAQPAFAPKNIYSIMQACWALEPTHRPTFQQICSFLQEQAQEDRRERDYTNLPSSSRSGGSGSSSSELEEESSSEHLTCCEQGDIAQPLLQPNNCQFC
# T12 sequence (P12931 whole entry): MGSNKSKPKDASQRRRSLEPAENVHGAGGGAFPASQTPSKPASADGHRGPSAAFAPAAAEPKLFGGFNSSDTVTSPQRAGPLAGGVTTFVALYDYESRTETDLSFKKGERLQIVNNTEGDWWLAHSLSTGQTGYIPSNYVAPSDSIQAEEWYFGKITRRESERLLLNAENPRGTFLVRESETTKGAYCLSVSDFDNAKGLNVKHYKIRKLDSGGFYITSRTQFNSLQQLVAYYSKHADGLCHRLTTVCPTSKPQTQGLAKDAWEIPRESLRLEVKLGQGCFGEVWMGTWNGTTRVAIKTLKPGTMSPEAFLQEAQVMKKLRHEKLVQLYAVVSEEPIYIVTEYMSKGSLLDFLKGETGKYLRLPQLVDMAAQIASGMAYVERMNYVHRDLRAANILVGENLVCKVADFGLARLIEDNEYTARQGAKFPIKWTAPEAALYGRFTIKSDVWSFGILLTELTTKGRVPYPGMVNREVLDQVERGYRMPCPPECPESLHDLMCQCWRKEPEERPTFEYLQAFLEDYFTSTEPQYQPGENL
# T9 sequence (P29323 19-1055): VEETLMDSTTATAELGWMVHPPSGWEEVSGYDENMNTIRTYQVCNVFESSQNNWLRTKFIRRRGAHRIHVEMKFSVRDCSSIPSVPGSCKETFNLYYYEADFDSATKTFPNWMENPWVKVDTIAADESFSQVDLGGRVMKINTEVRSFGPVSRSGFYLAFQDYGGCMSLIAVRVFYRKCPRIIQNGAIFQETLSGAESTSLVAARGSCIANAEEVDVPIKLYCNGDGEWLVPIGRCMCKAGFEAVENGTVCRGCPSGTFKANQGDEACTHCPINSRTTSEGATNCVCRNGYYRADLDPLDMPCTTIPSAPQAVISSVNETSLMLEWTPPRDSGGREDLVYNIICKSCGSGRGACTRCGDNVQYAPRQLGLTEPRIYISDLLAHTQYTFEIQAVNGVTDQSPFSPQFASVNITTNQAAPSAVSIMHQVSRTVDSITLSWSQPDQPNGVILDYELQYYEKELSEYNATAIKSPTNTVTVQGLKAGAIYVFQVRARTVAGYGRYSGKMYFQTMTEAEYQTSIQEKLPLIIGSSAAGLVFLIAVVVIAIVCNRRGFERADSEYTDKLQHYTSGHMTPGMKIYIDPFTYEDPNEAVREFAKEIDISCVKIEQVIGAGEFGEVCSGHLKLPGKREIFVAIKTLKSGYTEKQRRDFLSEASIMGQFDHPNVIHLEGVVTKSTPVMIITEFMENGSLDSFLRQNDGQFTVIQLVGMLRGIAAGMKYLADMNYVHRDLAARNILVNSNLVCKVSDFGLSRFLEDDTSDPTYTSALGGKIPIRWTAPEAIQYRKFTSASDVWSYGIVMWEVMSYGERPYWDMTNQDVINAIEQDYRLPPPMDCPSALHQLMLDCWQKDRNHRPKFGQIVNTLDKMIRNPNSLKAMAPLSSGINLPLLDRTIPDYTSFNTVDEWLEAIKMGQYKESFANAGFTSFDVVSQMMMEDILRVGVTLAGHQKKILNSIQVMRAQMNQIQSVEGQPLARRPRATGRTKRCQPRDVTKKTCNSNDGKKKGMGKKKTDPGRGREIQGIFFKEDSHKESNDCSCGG
# T14 sequence (Q96GD4 whole entry): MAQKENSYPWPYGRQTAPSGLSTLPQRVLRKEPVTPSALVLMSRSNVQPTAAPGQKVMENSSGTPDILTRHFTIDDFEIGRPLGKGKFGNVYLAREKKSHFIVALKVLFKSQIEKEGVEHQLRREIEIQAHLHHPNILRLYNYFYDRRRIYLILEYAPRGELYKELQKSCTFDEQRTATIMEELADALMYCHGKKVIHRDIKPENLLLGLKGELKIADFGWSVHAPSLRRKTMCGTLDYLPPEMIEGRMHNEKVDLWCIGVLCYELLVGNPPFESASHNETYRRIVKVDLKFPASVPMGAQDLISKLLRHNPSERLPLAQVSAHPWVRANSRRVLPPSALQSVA
structure (smiles),measurement,setting,value
"COc1cc(OC)cc(N(CCN[C@H](C)CO)c2ccc3ncc(-c4cnn(C)c4)c(=O)n3c2)c1 [RK-019, (R)-7-((3,5-dimethoxyphenyl) (2-((1-hydroxypropan-2-yl)amino)ethyl)amino)-3-(1-methyl-1H-pyrazol-4-yl)-4H-pyrido [1,2-a]pyrimidin-4-one]",activity at 1 µM,MEK1(h),79%
same,activity at 1 µM,DCAMKL3(h),127%
same,activity at 1 µM,CaMKIIα(h),64%
same,activity at 1 µM,PIP5K1a(h),103%
same,activity at 1 µM,FGFR1(V561M)(h),70%
same,activity at 1 µM,TSSK2(h),91%
same,activity at 1 µM,PKBβ(h),84%
same,activity at 1 µM,SRPK2(h),134%
same,activity at 1 µM,EphB2(h),96%
same,activity at 1 µM,[1],101%
same,activity at 1 µM,LOK(h),76%
same,activity at 1 µM,cSRC(h),54%
same,activity at 1 µM,Flt3(D835Y)(h),86%
same,activity at 1 µM,Aurora-B(h),87%
same,activity at 1 µM,CK1γ2(h),97%
same,activity at 1 µM,Met(D1246H)(h),89%
same,activity at 1 µM,PRK1(h),105%
same,activity at 1 µM,MAK(h),110%
same,activity at 1 µM,Rsk1(h),120%
same,activity at 1 µM,CDK17/cyclinY(h),104%
same,activity at 1 µM,PKD2(h),98%
same,activity at 1 µM,Fms(Y969C)(h),31%
same,activity at 1 µM,NEK3(h),87%
same,activity at 1 µM,GCK(h),98%
same,activity at 1 µM,PKBα(h),102%
same,activity at 1 µM,NEK9(h),91%
same,activity at 1 µM,Abl (M351T)(h),34%
same,activity at 1 µM,STK16(h),113%
same,activity at 1 µM,PAK5(h),101%
same,activity at 1 µM,PKR(h),50%
same,activity at 1 µM,DRAK2(h),96%
same,activity at 1 µM,CDK12/cyclinK(h),109%
same,activity at 1 µM,MEK2(h),85%
same,activity at 1 µM,TBK1(h),101%
same,activity at 1 µM,SLK(h),99%
same,activity at 1 µM,BIKe(h),93%
same,activity at 1 µM,MAPKAP-K3(h),109%
